The conditions of data set [1]: 25, 12.5, 6.3, 3.1 µM in PPB, overnight at room temperature or 80 °C for 20 min; StrepII detection.
Procedure: For heat stability test serial dilutions of the NCR169C17–38-StrepII peptide were prepared in PPB at concentrations of 25, 12.5, 6.3, 3.1 µM, following the same protocol used in the antimicrobial assay. One set of samples was incubated overnight at 37 °C with shaking, another set was subjected to heat stress at 80 °C for 20 min, while one set was freshly prepared. Dot-blot analysis was performed by spotting 5 µl of each peptide solution onto a 0.22 µm nitrocellulose membrane (Bio-Rad). Detection of the StrepII-tagged peptide was carried out using the Precision Protein StrepTactin-HRP conjugate (Bio-Rad), following the manufacturer’s recommended protocol. Signal development was achieved using the Clarity Western ECL Substrate (Bio-Rad), with the membrane incubated for 5 min at room temperature, followed by exposure to Fuji Medical X-ray film for visualization.
Peptide dilutions (25, 12.5, 6.3, and 3.1 µM) in PPB were either incubated overnight at room temperature (RT) or heated at 80 °C for 20 min.
Data set [2] can be described thus: Peptide-lipid overlay assay. To be noted: 2 μM peptide, 1 h. The class given is binding. As to the method:
Membrane lipid strips (Echelon Biosciences, P-6002) were incubated for 1 h in blocking solution (3 % BSA in TBS-Tween 0.1 %) with gentle agitation followed by four 8-min washes in TBS-Tween. Then, strips were incubated with 2 μM of NCR169C17–38 in blocking solution for 1 h. Not bound peptide was washed off by four 8-min washes in TBS-Tween. The bound StrepII-tagged peptide was then detected on the strips using the same procedure described for the dot blot, except that chemiluminescence was visualized with an iBright™ FL1500 Imaging System (Invitrogen).
As shown above, NCR169C17–38 causes rapid damage to bacterial membranes. Since membrane structure is largely determined by its lipid composition, we next investigated the ability of NCR169C17–38-StrepII to bind membrane lipids in vitro using a peptide-lipid overlay assay (Supplementary Fig. 3.A). NCR169C17–38-StrepII bound to several anionic lipids, including phosphoinositides, phosphatidic acid, phosphatidylserine, and cardiolipin - a major constituent of bacterial membranes.

A further data set concerns E. coli. Nature of the data set: Antimicrobial test after heat stress or storage of the peptide. The data set is classed as cell-based, Escherichia coli. To be noted: then tested against E. coli, 3.1 µM = lowest dilution tested. As to the method: (B) NCR169C17-38-StrepII remains active against E. coli even at 3.1 µM after 20 minutes of treatment at 80 °C or incubation at room temperature for 24 hrs. Bacterial viability was assessed by plating 5 µL aliquots after treatment on LB agar. Only non-treated control cells could grow.

In data set [3] the test system is Enterococcus faecalis (ATCC 29212). In words: Minimal bactericidal concentration (MBC) assay. The class given is cell-based. The source says:
(§1) The Gram-positive strains Enterococcus faecalis (ATCC 29212), Staphylococcus aureus (HNCMO112011), and Listeria monocytogenes (ATCC 19111), and the Gram-negative strains Pseudomonas aeruginosa (ATCC 27853), Escherichia coli (ATCC 8739), Salmonella enterica (ATCC 13076), Klebsiella pneumoniae (NCTC 13440), and Acinetobacter baumannii (ATCC 17978) were obtained from ATCC (United States) and NCTC (National Collection of Type Cultures – England).
(§2) Minimal bactericidal concentrations (MBC) of peptides and reference antibiotics were determined in 20 mM potassium phosphate buffer (PPB, pH 7.4) and Mueller–Hinton broth (MHB) as described by ([Jenei et al., 2020]). Briefly, bacterial cultures were grown to mid-log phase, washed, adjusted to OD₆₀₀ = 0.1 (∼10⁷ CFU/mL), added 10 μl of it into 100 μl mixture and incubated in 96-well plates with 2-fold serial dilutions of peptides or antibiotics. After incubation at 37 °C with shaking, bacterial viability was assessed by plating 5 μL aliquots on LB agar. MBC was defined as the lowest concentration yielding no colony growth. Experiments were done at least in three biological replicates.
(§3) NCR169, its oxidized form (NCR169ox), and its variant in which the four cysteines were replaced with serines (NCR169-C9,15,28,33/S) (Table 1.A) were chemically synthesized with C-terminal amidation. These peptides were tested for antimicrobial activity against a panel of ESKAPE pathogens - Enterococcus faecalis, Staphylococcus aureus, Klebsiella pneumoniae, Acinetobacter baumannii, Pseudomonas aeruginosa, E. coli - as well as Listeria monocytogenes and Salmonella enterica. Peptides were applied to 10^6 log-phase bacterial cultures in a two-fold dilution series (25 - 0.1 µM) in potassium phosphate buffer (PPB) at pH 7.4. After three hours of incubation, 5 µl of each treatment was plated on LB agar and incubated overnight at 37 °C to assess bacterial survival. Minimal bactericidal concentrations (MBCs), defined as the lowest concentration eliminating bacterial growth, are presented in Table 1B.

The format of data set [4] is physicochemical. To be noted: pH 7.4.
Data set [5] deals with Salmonella enterica (ATCC 13076). In words: Minimal bactericidal concentration (MBC) assay. The data set is classed as cell-based. Particulars: short derivatives; 20 mM PPB at pH 7.4.
Excerpt: as §1, §2, §3

Data set [6] deals with Klebsiella pneumoniae (NCTC 13440). Nature of the data set: Minimal bactericidal concentration (MBC) assay. The class given is cell-based. To be noted: short derivatives; 20 mM PPB at pH 7.4.
Excerpt: as §1, §2, §3

Data set [7] concerns Pseudomonas aeruginosa (ATCC 27853). Nature of the data set: Minimal bactericidal concentration (MBC) assay. Particulars: short derivatives; 20 mM PPB at pH 7.4. The data set is classed as cell-based.
Excerpt: as §1, §2, §3

The test system of data set [8] is Listeria monocytogenes (ATCC 19111). Nature of the data set: Minimal bactericidal concentration (MBC) assay. The class given is cell-based. To be noted: short derivatives; 20 mM PPB at pH 7.4.
Excerpt: as §1, §2, §3

The test system of data set [9] is Acinetobacter baumannii (ATCC 17978). The data set is classed as cell-based. To be noted: short derivatives; 20 mM PPB at pH 7.4.
Excerpt: as §1, §2, §3

The subject of data set [10] is Staphylococcus aureus (HNCMO112011). The class given is cell-based. Particulars: for MBC S. a.: short derivatives, 20 mM PPB at pH 7.4.
Excerpt: as §1, §2, §3

In data set [11] the test system is Escherichia coli (ATCC 8739). The data set is classed as cell-based. Particulars: ATCC 8739, 3 h.
Excerpt: as §1
as §2, with “Experiments were done at least in three biological replicates.” left out
Three biological replicates were treated at OD600 = 0.2 with a final concentration of 1.6 µM NCR169C17–38 peptide for 20 min, while the control samples were treated with the same amount of water for 20 min. […] Quality and quantity was detected using 2200 TapeStation (Agilent) and Qubit RNA BR Assay […]

Where [12] appears, read: short derivatives, 20 mM PPB at pH 7.4.

Residues, ends and D or L forms follow the SMILES beside them. No end group written: not given here.

For `CC[C@H](C)[C@H](NC(=O)[C@H](CCCCN)NC(=O)[C@H](Cc1ccccc1)NC(=O)[C@H](CC(C)C)NC(=O)[C@@H]1CCCN1C(=O)[C@H](CCCCN)NC(=O)[C@H](CCCCN)NC(=O)[C@H](CO)NC(=O)[C@@H](N)CCCCN)C(=O)N[C@@H](Cc1c[nH]c2ccccc12)C(=O)N[C@@H](CCCCN)C(=O)N[C@@H](CS)C(=O)N[C@H](C(=O)N[C@@H](CCC(=O)O)C(=O)N[C@@H](CC(N)=O)C(=O)N[C@H](C(=O)N[C@@H](CS)C(=O)N[C@H](C(=O)N[C@@H](CC(C)C)C(=O)N[C@@H](Cc1c[nH]c2ccccc12)C(=O)N[C@@H](Cc1ccc(O)cc1)C(=O)N[C@@H](CCCCN)C(=O)N[C@@H](Cc1c[nH]c2ccccc12)C(=O)N[C@@H](CO)C(=O)N[C@@H](Cc1c[nH]cn1)C(=O)N1CCC[C@H]1C(=O)N[C@@H](CCC(N)=O)C(=O)N[C@@H](Cc1ccccc1)C(=O)N[C@@H](CCC(=O)O)C(=O)N[C@@H](CCCCN)C(N)=O)C(C)C)C(C)C)C(C)C` [NCR169C17–38-StrepII] (H-KSKKPLFKIWKCVENVCVLWYKWSHPQFEK-NH2; N-terminus assumed), the “peptide stability by dot blot” value in data set [1] is given as “confirmed its stability”. Besides, the “binding to phosphatidylglycerol (PG) on lipid strip” value in data set [2] was “did not bind”. Besides, in data set [2] (phosphoinositides, phosphatidic acid, phosphatidylserine, cardiolipin), the “binding to anionic lipids on lipid strip” value is “bound”. Besides, the “lowest concentration still bactericidal after heat stress” value with E. coli (peptide in PPB heated 20 minutes at 80 °C) is recorded as not above 3.1 µM. The “lowest concentration still bactericidal after storage” value in the data set on E. coli (peptide in PPB incubated at room temperature for 24 hrs (overnight)) is not above 3.1 µM.
With “EDIGHIKYCGIVDDCYKSKKPLFKIWKCVENVCVLWYK (disulfide) (disulfide (positions not given here); also: disulfide pairing not given here) [NCR169ox, oxidized form of NCR169]”, the “MBC E. f.” value in data set [3] (PPB pH 5.8, 3 h treatment, plated on LB agar) was “- (lack of bactericidal activity up to 25 µM)”; in data set [3] (PPB pH 7.4, 3 h treatment, 10^6 log-phase bacteria, two-fold dilutions 25-0.1 µM, plated on LB agar, * = best MBC value measured, more than two fold dilution differences in replicates), “- (lack of bactericidal activity up to 25 µM)”. Further, in [4], the “solubility / visible turbidity upon peptide addition” value is on record as “no visible turbidity”.
As to “KCVENVCVLWYK [NCR169_27–38, shorter C-terminal fragment of NCR169C17–38]”, the “MBC S. e.” value in data set [5] is “- (lack of bactericidal activity up to 25 µM)”. Moreover, the “MBC E. f.” value in data set [3] (setting [12]) was “- (lack of bactericidal activity up to 25 µM)”. The “MBC K. p.” value in data set [6] is on record as “- (lack of bactericidal activity up to 25 µM)”. For the same molecule, the “MBC P. a.” value in [7] was “- (lack of bactericidal activity up to 25 µM)”. For the same molecule, the “MBC L. m.” value in data set [8] was “- (lack of bactericidal activity up to 25 µM)”. Also, the “MBC A. b.” value in [9] is listed as “- (lack of bactericidal activity up to 25 µM)”. Moreover, the “MBC S. a.” value in data set [10] is on record as “- (lack of bactericidal activity up to 25 µM)”.
Turning to “PLFKIWKCVENVCVLWYK [NCR169_21–38, shorter C-terminal fragment of NCR169C17–38]”, the “MBC S. e.” value in data set [5] is “- (lack of bactericidal activity up to 25 µM)”. The “MBC E. f.” value in data set [3] (setting [12]) was “- (lack of bactericidal activity up to 25 µM)”. Further, the “MBC K. p.” value in data set [6] was “- (lack of bactericidal activity up to 25 µM)”. The “MBC P. a.” value in data set [7] was “- (lack of bactericidal activity up to 25 µM)”. For the same molecule, the “MBC L. m.” value in [8] is recorded as “- (lack of bactericidal activity up to 25 µM)”. Further, in [10], the “MBC S. a.” value was “- (lack of bactericidal activity up to 25 µM)”.
For YKSKKPLFKIWK-NH2 [NCR169_16–27], the “MBC Sa” value in data set [10] (HNCMO112011, 3 h) stood at 25 µM. For the same molecule, the “MBC Ec” value in data set [11] is 6.3 µM.

The values above are taken from paper PMC12811501, “A plant-derived antimicrobial peptide with multiple mechanisms of action exhibiting antibacterial and antibiofilm activities comparable to or superior to polymyxin B” (Current Research in Microbial Sciences, 2025).
